Data taken from PubChem BioAssay (NCI).
“And” between values parts separate entries of the source, which are not always exact repeats. Equal values may be shown once.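 Assay format: 96-well plates, 48-hour exposure. GI50 is the concentration that inhibits growth by half. TGI: total growth inhibition.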 Where a SMILES comes first, the peptide text is derived from it. The star is where a group is joined. Boc = CC(C)(C)OC(=O)*; Bn = c1ccc(C*)cc1

Tests used:
Test in all cases: NCI anticancer screen, dose series, 48 h
NCI-H226 lung = system: NCI-H226 lung
OVCAR-8 ovarian = system: OVCAR-8 ovarian
SK-MEL-2 melanoma = system: SK-MEL-2 melanoma
HT29 colon = system: HT29 colon
CAKI-1 renal = system: CAKI-1 renal
NCI/ADR-RES ovarian = system: NCI/ADR-RES ovarian
RXF 393 renal = system: RXF 393 renal
OVCAR-5 ovarian = system: OVCAR-5 ovarian
SK-MEL-28 melanoma = system: SK-MEL-28 melanoma
OVCAR-3 ovarian = system: OVCAR-3 ovarian
NCI-H460 lung = system: NCI-H460 lung
ACHN renal = system: ACHN renal

| Compound | TGI (NCI-H226 lung) | TGI (OVCAR-8 ovarian) | TGI (SK-MEL-2 melanoma) | TGI (HT29 colon) | TGI (CAKI-1 renal) | TGI (NCI/ADR-RES ovarian) | TGI (RXF 393 renal) | TGI (OVCAR-5 ovarian) | TGI (SK-MEL-28 melanoma) | TGI (OVCAR-3 ovarian) | TGI (NCI-H460 lung) | TGI (ACHN renal) | GI50 (NCI-H226 lung) | GI50 (NCI-H460 lung) | GI50 (RXF 393 renal) | GI50 (ACHN renal) | GI50 (OVCAR-5 ovarian) | GI50 (SK-MEL-28 melanoma) | GI50 (OVCAR-3 ovarian) |
| --- | --- | --- | --- | --- | --- | --- | --- | --- | --- | --- | --- | --- | --- | --- | --- | --- | --- | --- | --- |
| Cc1cc(S(=O)(=O)NC(=NCCc2ccccc2)NN)c(S)cc1Cl | 66.3 µM | 35.2 µM | > 100 µM | > 100 µM | > 100 µM | 57.8 µM | 64.7 µM | 36.8 µM | 71.3 µM | 74.8 µM | – | – | – | – | – | – | – | – | – |
| CCCCC1(O)CC2CC1C(C)C2(C)C (configuration not stated) | > 100 µM | > 100 µM | – | > 100 µM | > 100 µM | > 100 µM | > 100 µM | > 100 µM | > 100 µM | > 100 µM | – | – | – | – | – | – | – | – | – |
| CCNc1nnc(-c2ccccc2Nc2ccccc2-c2nnc(NCC)s2)s1 | 77.2 µM | > 83.9 µM | 31 µM | 60.5 µM | 17 µM | > 100 µM | 85.8 µM | 48.5 µM | 55.2 µM | > 100 µM | 31.3 µM | 31 µM | – | – | – | – | – | – | – |
| CN(C)c1ccc(/C=C(\NC(=O)c2ccccc2)C(=O)Nc2cccc(C(=O)NCCCO)c2)cc1 | > 100 µM | > 100 µM | > 100 µM | > 100 µM | > 100 µM | > 100 µM | > 100 µM | > 100 µM | > 100 µM | > 100 µM | > 100 µM | > 100 µM | – | – | – | – | – | – | – |
| Cc1cc2c(cc1Cl)SC(NNC1=NCCN1)=NS2(=O)=O | > 10 µM | > 10 µM | > 10 µM | > 10 µM | > 10 µM | > 10 µM | > 10 µM | > 10 µM | > 10 µM | > 10 µM | > 10 µM | > 10 µM | – | – | – | – | – | – | – |
| CC(C)Cn1cnc2c(Cl)nc3ccccc3c21 | > 100 µM | > 100 µM | > 100 µM | > 100 µM | > 100 µM | > 100 µM | > 100 µM | > 100 µM | > 100 µM | > 100 µM | > 100 µM | > 100 µM | – | – | – | – | – | – | – |
| CC1=CC(=O)N(n2c(-c3ccccc3)n[nH]c2=O)C1=O | > 100 µM | > 100 µM | > 100 µM | > 100 µM | > 100 µM | > 100 µM | > 100 µM | > 100 µM | > 100 µM | > 100 µM | > 100 µM | > 100 µM | – | – | – | – | – | – | – |
| CN1CCN(Cc2nc3c(s2)CCc2sccc2-3)CC1 | > 100 µM | > 100 µM | > 100 µM | > 100 µM | > 100 µM | > 100 µM | > 100 µM | > 100 µM | 73 µM | > 100 µM | > 100 µM | > 100 µM | – | – | – | – | – | – | – |
| CC(C(=O)n1ccnc1)N1c2ccccc2Sc2ccccc21 (configuration not stated) | > 100 µM | > 100 µM | > 100 µM | > 100 µM | – | > 100 µM | > 100 µM | > 100 µM | > 100 µM | > 100 µM | > 100 µM | > 100 µM | – | – | – | – | – | – | – |
| COC(=O)Cn1c(=O)oc2nc(-c3ccccc3)cc(C(F)(F)F)c21 | > 100 µM | > 100 µM | > 100 µM | > 100 µM | > 100 µM | > 100 µM | > 100 µM | > 100 µM | > 100 µM | > 100 µM | > 100 µM | > 100 µM | – | – | – | – | – | – | – |
| CS(=O)(=O)O[C@H]1[C@H](O)c2ccccc2[C@@H]1N=[N+]=[N-] | > 100 µM | > 100 µM | > 100 µM | > 100 µM | > 100 µM | > 100 µM | > 100 µM | > 100 µM | > 100 µM | > 100 µM | > 100 µM | > 100 µM | – | – | – | – | – | – | – |
| CC(=O)n1[nH]c(=O)n(-c2ccccc2)c1=O | > 100 µM | > 100 µM | > 100 µM | > 100 µM | > 100 µM | > 100 µM | > 100 µM | > 100 µM | > 100 µM | > 100 µM | > 100 µM | > 100 µM | – | – | – | – | – | – | – |
| CCOC(=O)C1(N)CC1 | > 100 µM | > 100 µM | – | > 100 µM | > 100 µM | > 100 µM | > 100 µM | > 100 µM | > 100 µM | > 100 µM | > 100 µM | > 100 µM | – | – | – | – | – | – | – |
| CN1CC2=C(NC(=S)NC2c2ccccc2Cl)/C(=C/c2ccccc2Cl)C1 (configuration not stated) | > 100 µM | > 100 µM | > 100 µM | > 100 µM | > 100 µM | > 100 µM | > 100 µM | > 100 µM | > 100 µM | > 100 µM | > 100 µM | > 100 µM | – | – | – | – | – | – | – |
| CNC(=O)C(CC(C)C)NC(=O)C(C)NC(=O)C(Cc1ccc(OCc2ccccc2)cc1)NC(=O)C(COCc1ccccc1)NC(=O)OC(C)(C)C (configuration not stated) (Boc-S(Bn)Y(Bn)AL-NHMe; configuration not given here) | > 68.5 µM and 39 µM | 35 µM and 48.5 µM | – | > 38.9 µM and 30.9 µM | > 100 µM | > 100 µM | > 100 µM and 24.3 µM | > 100 µM and 51.6 µM | > 100 µM and 30.9 µM | > 100 µM and 44 µM | > 61.4 µM and 42.6 µM | > 100 µM | 44.3 µM and 15.2 µM | > 41 µM and 18.3 µM | 47.6 µM and 7.04 µM | > 100 µM and 13 µM | > 73.2 µM and 21.2 µM | > 62.5 µM and 14.1 µM | 42.1 µM and 19.1 µM |
| Cc1ccsc1C(=S)Nc1ccc(Cl)c(/C=N/OC(C)C)c1 | > 100 µM | > 100 µM | > 100 µM | > 100 µM | > 100 µM | > 100 µM | 69.4 µM | > 100 µM | > 100 µM | > 100 µM | > 100 µM | > 100 µM | – | – | – | – | – | – | – |
| O=[N+]([O-])C(/C=C(\Cl)[N+](=O)[O-])=C(N1CCCCC1)N1CCCCC1 | > 100 µM | > 100 µM | > 100 µM | > 100 µM | > 100 µM | > 100 µM | > 100 µM | > 100 µM | > 100 µM | 54.7 µM | > 100 µM | > 100 µM | – | – | – | – | – | – | – |
| CCOC(=O)N/N=C(\CC)OCC | – | > 100 µM | > 100 µM | – | > 100 µM | > 100 µM | > 100 µM | > 100 µM | – | > 100 µM | > 100 µM | > 100 µM | – | – | – | – | – | – | – |
